The values below come from US20180177771A1, “BIOMARKERS FOR NANOPARTICLE COMPOSITIONS” (priority 2015, published 2018).

Each structure is given as a SMILES string.

For data set [1], the system named is UMUC3 human bladder cancer xenografts. Nature of the data set: UMUC3 bladder cancer mouse xenograft, Part B combination study. The conditions noted are these: ABI-009 3 mg/kg twice weekly IV, gemcitabine 30 mg/kg twice weekly IP.
Protocol: The anti-tumor efficacy of a panel of drugs, including mitomycin C, cisplatin, gemcitabine, valrubicin, and docetaxel, in combination with Nab-sirolimus (such as ABI-009) were evaluated and compared in a UMUC3 cell xenograft model in athymic nude mice.
Tumors were established from the UMUC3 cells as follows. Female athymic nude mice were obtained and housed in filter-topped cages supplied with autoclaved bedding. Animal handling procedures were under laminar flow hood. Each mouse was ear tagged for individual identification, and the body weight of each mouse was recorded. UMUC3 cells (10×10^6 cells per flank in 0.1 mL PBS with 20% Matrigel) were injected subcutaneously into the right flank of each mouse to implant the tumor. Tumor measurements were recorded three times per week (such as on Mondays, Wednesdays and Fridays) until tumors became approximately 60 to 160 mm^3 total. The mice were randomized for treatment once the average tumor volumes reached approximately 100 mm^2. Prior to the treatment, body weights and tumor measurements of all mice were recorded.
In the Part B combination study, athymic mice bearing UMUC3 human bladder cancer xenografts were treated until study end with ABI-009 (3 mg/kg, twice weekly, IV via tail vein), mitomycin C (0.5 mg/kg, twice weekly, IP), cisplatin (3 mg/kg, twice weekly. IP), gemcitabine (30 mg/kg, twice weekly, IP), valrubicin (20 mg/kg, twice weekly, IP), and docetaxel (3 mg/kg, twice weekly, IP) either as single agent or in combination (ABI-009 plus chemotherapeutic agent). Animals were monitored for tumor volume and body weight.
In each combination of drugs being administered comprising Nab-sirolimus and a second drug (such as MMC. Cis, GEM. Val, and Doc), the second drug was administered immediately before Nab-sirolimus. The mice were monitored during the course of the treatment by recording body weights three times per week (such as on Mondays, Wednesdays and Fridays), recording signs of distress daily, and recording tumor measurements three times per week (such as on Mondays. Wednesdays and Fridays). Measurements of tumor sizes and body weights were continued for 2 weeks following completion of the dosing regimen, or until the mouse was sacrificed when the tumor size of the mouse is more than 2000 mm^3.
A further data set has as its system ABCB1/ABCG2. The conditions noted are these: cited from earlier work.
For data set [2] the following is noted: in vivo; cited from earlier work.

The TGI is how far tumour growth fell short of that in controls. `Nc1ccn([C@@H]2O[C@H](CO)[C@@H](O)C2(F)F)c(=O)n1` [gemcitabine]: in data set [1], the “animal survival compared with saline control” value is given as “only modest effects” and the “antitumor activity (tumor growth inhibition) compared with saline control” value is “only modest effects”. In addition, the median survival in data set [1] (Log-rank test) worked out at 20 days. Besides, in data set [1] (single agent or combination), the TGI worked out at 41.7%.

For `COc1ccc(COc2cc3oc(=O)c4cc(C(C)O)ccc4c3cc2OC)cc1` (stereo not drawn) [Palomid 529], the “affinity for ABCB1/ABCG2” value in the data set on ABCB1/ABCG2 is “lacks affinity for ABCB1/ABCG2”. For the same compound, the brain penetration entry in data set [2] was “good brain penetration”.
